Results published in patent US20230035479A1, “METHODS AND COMPOSITIONS FOR REDUCING HAIR GREYING” (President and Fellows of Harvard College, priority 2019, published 2023).
Read-outs that look alike come from different tables or passages of the source.

How the values were obtained:
Type in all cases: in vivo, mouse
[1] = tested on: mature melanocytes; test: Differentiated/mature melanocytes and hair bulb cells, immunofluorescence
Experimental: Loss of hair pigmentation can be due to defects in melanin synthesis, loss of differentiated melanocytes, or problems in MeSC maintenance. To understand how stress impacts the melanocyte lineage, RTX was injected into mice in anagen, when both MeSCs and differentiated melanocytes were present but located within distinct compartments—MeSCs were near to the bulge while differentiated melanocytes were at the hair bulb (FIG. 1E). […] These differentiated melanocytes continued to generate pigments, and the hair coat remained black (FIGS. 6F-6G). When hair follicles in the RTX-injected animals entered catagen and telogen, many have lost all MeSCs (FIG. 1E, Telo). Subsequently, when the next round of anagen initiated, differentiated melanocytes were not produced to color new hair shafts, and unpigmented hairs emerged (FIG. 1E, 2nd Ana, FIG. 6H). […] In this case, unpigmented hairs appeared as soon as new hairs emerged in the following anagen (FIGS. 7A-7B). […] MeSCs were also lost or reduced in mice subjected to restraint stress or chronic unpredictable stress (FIG. 7C). Since stress depleted MeSCs, the loss of hair pigmentation in all three conditions was permanent (FIG. 7D).
Quiescence is a key feature of many somatic stem cells. Loss of quiescence has been postulated to cause MeSC loss in Bcl2 mutants. To examine if stress alters MeSCs quiescence, RTX or norepinephrine was injected into mice that had entered full anagen, when MeSCs are normally quiescent. A dramatic increase in the number of proliferating MeSCs was seen within 24 hours after RTX or norepinephrine injection—about 50% of MeSCs became positive for Phospho-Histone H3, an M phase marker (FIG. 4B). This number is in sharp contrast to the MeSC proliferation seen in early anagen (˜6%), the only stage when MeSCs proliferate to self-renew (FIG. 11E).
Mouse skin samples were fixed using 4% paraformaldehyde (PFA) for 15 minutes at room temperature, washed 6 times with PBS, and immersed in 30% sucrose overnight at 4° C. Samples were then embedded in OCT (Sakura Finetek). 35˜50 μm sections were fixed in 4% paraformaldehyde (PFA) for 2 minutes and washed with PBS and PBST. Slides were then blocked using blocking buffer (5% donkey serum; 1% BSA, 2% cold water fish gelatin in 0.3% Triton in PBS) for 1 hour at room temperature, followed by staining with primary antibodies overnight at 4° C. and secondary antibody for 4 hours at room temperature. For sympathetic nerve density quantification, 90 μm sections were used. EdU was developed for 1 hour using the Click-It reaction according to manufacturer instructions (Thermo Fisher Scientific). TUNEL assay was performed according to manufacturer instructions (Roche). Fontana—Masson staining was performed according to manufacturer instructions (Market Lab ML7255). Antibodies used: TRP2 (Santa Cruz 10451, 1:800), tyrosine hydroxylase (rabbit, Millipore AB152, 1:1000 or sheep, Millipore AB1542, 1:150-1:300), c-Fos (Abcam, 190289, 1:1000), γ-H2AX (Cell Signaling, 9718, 1:400), phospho-histone H3 (rabbit, Cell Signaling Technology 3377S, 1:500), cleaved caspase 3 (rabbit, Cell Signaling Technology 9664S, 1:400), GFP (rabbit, Abcam ab290, 1:1000 or chicken, Ayes labs GFP-1010, 1:200), CD3 (eBioscience 14-0032-81, 1:800), CD11b (eBioscience 14-0112-81, 1:800), Phospho-CREB (Cell Signaling 9198, 1:800), MITF (Abcam ab12039, 1:400).

[2] = tested on: Phospho-CREB (a downstream effector of ADRB2); test: Phospho-CREB immunofluorescence in hair follicles; settings: 12 hours after RTX injection; not in mature melanocytes
Experimental: It was then considered whether ADRB2 might mediate the impact of stress on MeSCs.
(§1) Mouse skin samples were fixed using 4% paraformaldehyde (PFA) for 15 minutes at room temperature, washed 6 times with PBS, and immersed in 30% sucrose overnight at 4° C. Samples were then embedded in OCT (Sakura Finetek). 35˜50 μm sections were fixed in 4% paraformaldehyde (PFA) for 2 minutes and washed with PBS and PBST. Slides were then blocked using blocking buffer (5% donkey serum; 1% BSA, 2% cold water fish gelatin in 0.3% Triton in PBS) for 1 hour at room temperature, followed by staining with primary antibodies overnight at 4° C. and secondary antibody for 4 hours at room temperature. For sympathetic nerve density quantification, 90 μm sections were used. EdU was developed for 1 hour using the Click-It reaction according to manufacturer instructions (Thermo Fisher Scientific). TUNEL assay was performed according to manufacturer instructions (Roche). Fontana—Masson staining was performed according to manufacturer instructions (Market Lab ML7255). […]

[3] = tested on: C57BL/6J mice
[4] = Fontana-Masson melanin staining; settings: 5 days after RTX injection
Experimental: They also began to depart from the bulge—some migrated downwards along the hair follicle, and some migrated out into dermis or epidermis (FIG. 4C, D2 and D3). By Day 3, many GFP positive cells had migrated out of the bulge, and by Day 4, many hair follicles had lost all GFP positive cells in the bulge.
as §1

**Q.** For `C=C(C)[C@]12C[C@@H](C)[C@@]34O[C@](Cc5ccccc5)(O[C@@H]1[C@@H]3C=C(COC(=O)Cc1ccc(O)c(OC)c1)C[C@]1(O)C(=O)C(C)=C[C@@H]41)O2` [RTX, resiniferatoxin], which “differentiated melanocytes in the same hair follicle” value ([1]; 5 days after RTX injection in anagen) is on record?
**A.** remained unperturbed

**Q.** And the “proliferation or apoptosis in mature melanocytes” value ([1]; after injection, full anagen)?
**A.** no changes in proliferation or apoptosis

**Q.** What about the “Phospho-CREB in MeSCs” value [2] of the same molecule?
**A.** marked induction of Phospho-CREB

**Q.** And the “hair greying (unpigmented hairs)” value ([3]; C57BL/6J mice, next hair cycle after RTX injection)?
**A.** many new hairs formed in the next hair cycle following RTX injection became unpigmented

**Q.** What about the “extent of hair greying, male vs female” value ([3]; RTX injection, male and female mice) of the same molecule?
**A.** same extent of hair greying in both male and female mice

**Q.** And the white hair formation ([3]; RTX into CD11b-DTR mice, myeloid lineages ablated by diphtheria toxin)?
**A.** still resulted in white hair formation

**Q.** What about the hair greying ([3]; RTX into RIPK3 mutant mice) of the same molecule?
**A.** still caused hair greying

**Q.** What about the white hair formation ([3]; RTX into Rag1 mutant mice lacking T and B cells) of the same molecule?
**A.** still resulted in white hair formation

**Q.** What about the hair greying ([3]; RTX into Tyr-CreER, GR fl/fl mice (MeSC-GR cKO)) of the same molecule?
**A.** still resulted in hair greying

**Q.** And the hair greying ([3]; RTX into adrenalectomized mice)?
**A.** still caused hair greying

**Q.** And the white hair formation ([3]; RTX, ADRB2 depleted from MeSCs using Tyr-CreER)?
**A.** white hairs failed to form

**Q.** What about the hair greying ([3]; RTX, ADRB2 depleted from hair follicle stem cells) of the same molecule?
**A.** still resulted in hair greying

**Q.** And the ectopic pigmentation [4]?
**A.** ectopic pigmentation could be detected along the hair follicle, epidermis, and dermis
